For the assay, the target named is T1, human histone demethylase JMJD2A (catalytic domain, residues 1-350) (Homo sapiens, UniProt O75164).
T1 construct: recombinantly produced catalytic domain, residues 1-350, of the human histone demethylase JMJD2A
T1 sequence (O75164 1-350): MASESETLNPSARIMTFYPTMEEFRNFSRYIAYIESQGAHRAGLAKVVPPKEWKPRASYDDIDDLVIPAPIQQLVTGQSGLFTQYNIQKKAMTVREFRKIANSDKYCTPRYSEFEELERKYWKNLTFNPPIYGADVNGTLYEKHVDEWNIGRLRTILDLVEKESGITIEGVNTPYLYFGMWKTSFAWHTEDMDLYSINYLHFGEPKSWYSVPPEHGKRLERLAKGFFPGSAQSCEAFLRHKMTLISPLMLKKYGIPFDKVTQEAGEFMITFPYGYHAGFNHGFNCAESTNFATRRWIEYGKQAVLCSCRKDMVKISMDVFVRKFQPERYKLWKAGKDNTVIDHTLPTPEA
Briefly: Jumonji type histone demethylase (JMJD2A) activity assay with Luminos reagent formaldehyde fluorescence detection. In kind it is biochemical. The note with it: 1.0 mM NOG; 0.5 mM 2-OG, 0.3 mM H3K9me3 peptide, 5 μM JMJD2A, 37° C., 30 minutes; triplicate. The method, then:
A series of demethylase assays with Luminos reagent are performed. These assays are conducted with recombinantly produced catalytic domain, residues 1-350, of the human histone demethylase JMJD2A that demethylates the trimethylated forms of Lys9 and Lys36 in histone H3.
A positive control assay is performed using a 100 microliter assay cocktail of 20 mM HEPES pH 7.5, 50 mM NaCl, 1 mM Sodium Ascorbate, 0.05 mM FeSO4, and 5 μM JMJD2A. The assay is initiated by the addition of the cofactor 2-oxoglutarate (2-OG, 0.5 mM) and a 15-residue histone H3 trimethylated Lys9 (H3K9me3) substrate peptide (0.3 mM, H2N-[…](tri-methyl)STGGKA-amide) (SEQ ID NO. 1).
Three negative control reactions are performed in which 2-OG, the H3K9me3 peptide, and JMJD2A are omitted, respectively. […] Specifically, reactions are performed with 1.0 mM N-oxalylglycine (NOG), a competitive inhibitor of 2-OG, and desferoxamine (0.2 mM), a potent Fe(II) chelator that inhibits the oxidative reaction catalyzed by Fe(II)-dependent JmjC demethylases. […] Fifty microliters of the Luminos reagent solution prepared as described in Example 1 is then added to each reaction and the fluorescence is allowed to develop at 37° C. for 30 minutes. The fluorescence of the formaldehyde-Luminos reagent adduct is measured at 510 nm using an excitation wavelength of 440 nm with a Tecan Safire 2 microplate reader. […]

As to `O=C(O)CNC(=O)C(=O)O` [NOG, N-oxalylglycine], the “diminishes fluorescence in comparison to the positive control assay” value was “two-fold”.
